Results published in US20170051149A1, “AZOARYLS AS REVERSIBLY MODULATABLE TUBULIN INHIBITORS” (ECOLE NORMALE SUPERIEURE DE LYON, priority 2014, published 2017).
Where a name gives a salt, the structure may show the parent alone.

Tests used:
[1] = UV-Vis absorption spectra of trans and cis isomers (λstrong, εE, λiso); type: physicochemical; settings: PBS pH = 7.4, 20% MeCN
Experimental: A(λmeas, λirrad) is used to indicate the measured UV-Vis absorption spectrum in the range 340 nm<λmeas<650 nm, as a function of the irradiating wavelength λirrad once PSS(λirrad) has been established. UV-Vis measurement of A(λmeas, λirrad) was performed. It was considered that the PSS had been established when the absorbance profile ceased to alter under continued irradiation. An isosbestic point (wavelength λiso) was found for each compound by examining where the absorption A(λmeas) was invariant with respect to changing λirrad. A(λmeas, dark) was also acquired with samples that had been kept in the dark for at least several hours, and it was assumed that no significant spectral contribution from the cis isomer was present in these spectra. […]
HPLC (high-performance liquid chromatography) was then used as described in Part A to measure ε*E(λ) and ε*Z(λ) (the separated absorption profiles of trans and cis isomers respectively, in arbitrary units which are not intercomparable in an absolute sense). It was approximated that these spectra would be identical in shape if measured under the UV-Vis conditions, so once ε*E(λ) and ε*Z(λ) were scaled appropriately relative to each other, these scaled spectra could be used to deconvolute A(λmeas, λirrad). This approximation was considered useful especially in the regions of greatest spectral interest, ie. regions of relatively strong absorption (since only rather well-absorbed wavelengths will allow significant photoisomerisation under finite photon flux). To place the arbitrary-unit absorption spectra on an absolute scale, the maximal absorption wavelength λstrong of the trans-isomer was first selected by examining A(λmeas, dark): typically, λstrong≈380 nm. with Expressing A(λstrong, dark) in units M^−1cm^−1, ε*E(λstrong) was then scaled so that εE(λstrong)=A(λstrong, dark), giving:
εE(λ)=ε*E(λ)×[A(λstrong,dark)/ε*E(λstrong)]
and the isosbestic point was used to scale the cis-isomer spectrum as per:
εZ(λ)=ε*Z(λ)×[εE(λiso)/ε*Z(λiso)]
However, using A(λstrong, dark) was preferred, since A(λiso) was typically so much smaller that the standard deviation in the scaled absorptivities which it generated was far greater.
Absorption spectra in cuvette (“UV-Vis”) were acquired on a Varian CaryScan 50 (1 cm, 100 μL or 1 mL volume) with Peltier cell temperature control unit maintained at 37° C., in PBS at pH˜7.4 containing a low percentage of cosolvent if needed (typically 2% MeCN or 5% DMSO). A ThorLabs Polychrome V monochromator with a fibre optic cable output directed into the cuvette was used to perform photoisomerisation studies by UV-Vis spectrophotometry although single LEDs of approximately 10-20 mW output, 15-20° cone angle, and 10-15 nm bandwidth FWHM, obtained commercially from Roithner Lasertechnik GmbH, were equally successful in providing repeatable monochromatic photoisomerisation. Separated spectra of trans and […] forms were acquired from the inline Diode Array Detector on the AGILENT 1260 SL coupled LC-MS system after HPLC separation. Fluorescence spectrophotometry (excitation and emission spectra) were acquired on a Varian CaryEclipse fluorescence spectrophotometer.
By the above procedure, the trans- and cis-isomers of each species were separated by HPLC as described in Part A, and ε*E(λ) and ε*Z(λ) were measured on the inline ultraviolet/visible Diode Array Detector; these were then scaled as outlined above. The parameters λstrong, εE(λstrong) and λiso are tabulated for selected compounds below (Table 1).

[2] = thermal reversion halflife of spontaneous cis->trans isomerisation; type: physicochemical; settings: PBS pH = 7.4, 20% MeCN
Description: Finally, trends in τ were ascertained by establishing the PSS at λstrong, then turning off the light source at time t0, and measuring A(λstrong, t) over time. Data were acquired for half an hour, or else the first three halflives (whichever was the shorter period), then fitted to the equation:
A(λstrong,t)=A(λstrong,dark)−[A(λstrong,dark)−A(λstrong,t0)]×e^−kt
This fit was used to return an in vitro halflife τ* for the cis->trans spontaneous thermal reversion isomerisation process, defined as τ=ln 2/k. It should be noted however, that azoaryl compounds' thermal reversion rates are known to depend strongly upon their microenvironment, such as pH and solvent/solvation effects^[7,38]. This was shown for compound (I.1), where a change of only 1.4 pH units gave a 25% change in τ*; note that different compounds are expected to respond very differently to changes in pH so no unifying trends are expected. Therefore the τ* acquired in vitro were considered appropriate only for qualitative intercomparison between samples (trend of τ* vs structure), rather than quantitative prediction of the τ values which might be experienced in cellulo or in vivo. Indeed, these in vitro τ* values appeared at least three times longer than what would have been expected based on in cellulo experiments where the pause time between activating pulses was varied.
Thermal reversion times were measured as described above. Those for selected compounds are presented below (Table 2).

HeLa cells = assay: cytotoxicity by crystal violet staining; type: cell-based; settings: 40 h
Experimental: Seven of the compounds according to the invention were selected for biological tests. Their cytotoxicity was assessed using crystal violet staining as adapted from standard procedure^[31]. Briefly, HeLa cells were seeded on 96-well plates, treated with the given concentrations of the selected compound, and exposed or not to the pulse protocol of illumination with light at 390 nm (pulses of 75 ms every 15 s). After 40 h cells were stained with crystal violet solution (0.5% crystal violet in 20% methanol) for 10 min. Unbound crystal violet was removed by rinsing with distilled water and cells were air-dried. Crystal violet was subsequently eluted from cells with 0.1 M sodium citrate in 50% ethanol. The absorbance of crystal violet is proportional to the cell number and was determined at 590 nm with a FLUOstar Omega microplate reader (BMG Labtech).
Each compound was tested at 6 doses: 100 nM, 500 nM, 1 μM, 2 μM, 5 μM and 10 μM. In order to ensure their solubility in the cell culture media, DMSO was used as a co-solvent, and to provide comparability between all samples the volume of DMSO was adjusted to obtain its final concentration as 1% in the cell culture media for all the compounds at all concentrations tested.
Results presented in Table 4 below are expressed as a fold growth relative to the control growth of the cells treated only with a co-solvent (1% DMSO), and are represented as a mean value from triplicates coming from a representative experiment.

[3] = 100 nM, 390 nm (75 ms every 15 s)
[4] = 500 nM, 390 nm (75 ms every 15 s)
[5] = 1 μM, 390 nm (75 ms every 15 s)
[6] = 2 μM, 390 nm (75 ms every 15 s)
[7] = 5 μM, 390 nm (75 ms every 15 s)
[8] = 10 μM, 390 nm (75 ms every 15 s)

Row | εE(λstrong) [1] | λiso [1] | λstrong [1] | τ, reversion time [2] | SMILES | mean fold growth (HeLa cells; [3]) | mean fold growth (HeLa cells; 100 nM, Dark) | mean fold growth (HeLa cells; [4]) | mean fold growth (HeLa cells; 500 nM, Dark) | mean fold growth (HeLa cells; [5]) | mean fold growth (HeLa cells; 1 μM, Dark) | mean fold growth (HeLa cells; [6]) | mean fold growth (HeLa cells; 2 μM, Dark) | mean fold growth (HeLa cells; [7]) | mean fold growth (HeLa cells; 5 μM, Dark) | mean fold growth (HeLa cells; [8]) | mean fold growth (HeLa cells; 10 μM, Dark)
1 | 11400 M⁻¹ cm⁻¹ | 470 nm | 365 nm | 0.75 min | COc1ccc(N=Nc2cc(OC)c(OC)c(OC)c2)cc1N [I.2, 2-methoxy-5-((3,4,5-trimethoxyphenyl)diazenyl)aniline] | 1.10 fold | 0.97 fold | 0.83 fold | 0.90 fold | 0.50 fold | 0.89 fold | 0.47 fold | 0.81 fold | 0.32 fold | 0.86 fold | 0.34 fold | 0.70 fold
2 | 19578 M⁻¹ cm⁻¹ | 450 nm | 365 nm | 134 min | COc1ccc(N=Nc2cc(OC)c(OC)c(OC)c2)c(F)c1F [I.5, 1-(2,3-difluoro-4-methoxyphenyl)-2-(3,4,5-trimethoxyphenyl)diazene] | – | – | – | – | – | – | – | – | – | – | – | –
3 | 13600 M⁻¹ cm⁻¹ | 455 nm | 365 nm | 50 min | COc1cc(N=Nc2ccc(OC)c([N+](=O)[O-])c2F)cc(OC)c1OC [I.7, 1-(2-fluoro-4-methoxy-3-nitrophenyl)-2-(3,4,5-trimethoxyphenyl)diazene] | – | – | – | – | – | – | – | – | – | – | – | –
4 | 11400 M⁻¹ cm⁻¹ | 430 nm | 355 nm | 116 min | COc1ccc(N=Nc2cc(F)c(OC)c(F)c2)cc1 [I.9, 1-(3,5-difluoro-4-methoxyphenyl)-2-(4-methoxyphenyl)diazene] | – | – | – | – | – | – | – | – | – | – | – | –
5 | 12400 M⁻¹ cm⁻¹ | 485 nm | 380 nm | 28 min | COc1ccc(N=Nc2cc(OC)c(OC)c(OC)c2)c(OC)c1 [I.12, 1-(2,4-dimethoxyphenyl)-2-(3,4,5-trimethoxyphenyl)diazene] | – | – | – | – | – | – | – | – | – | – | – | –
6 | 18000 M⁻¹ cm⁻¹ | 485 nm | 390 nm | 3.3 min | COc1cc(N=Nc2ccc(OC)c3ncccc23)cc(OC)c1OC [I.14, 8-methoxy-5-((3,4,5-trimethoxyphenyl)diazenyl)quinoline] | – | – | – | – | – | – | – | – | – | – | – | –
7 | 16300 M⁻¹ cm⁻¹ | 475 nm | 380 nm | 8.4 min | COc1ccc(N=Nc2cc(OC)c(OC)c(OC)c2)c(NC(C)=O)c1 [I.26, N-(5-methoxy-2-((3,4,5-trimethoxyphenyl)diazenyl)phenyl)acetamide] | – | – | – | – | – | – | – | – | – | – | – | –

Further lines, the molecule ahead of its results:

Row | SMILES | εE(λstrong) [1] | λiso [1] | λstrong [1] | τ, reversion time [2] | mean fold growth (HeLa cells; [3]) | mean fold growth (HeLa cells; 100 nM, Dark) | mean fold growth (HeLa cells; [4]) | mean fold growth (HeLa cells; 500 nM, Dark) | mean fold growth (HeLa cells; [5]) | mean fold growth (HeLa cells; 1 μM, Dark) | mean fold growth (HeLa cells; [6]) | mean fold growth (HeLa cells; 2 μM, Dark) | mean fold growth (HeLa cells; [7]) | mean fold growth (HeLa cells; 5 μM, Dark) | mean fold growth (HeLa cells; [8]) | mean fold growth (HeLa cells; 10 μM, Dark)
8 | COc1ccc(N=Nc2cc(OC)c(OC)c(OC)c2)cc1OC(=O)N1CCCCC1CNC(=O)[C@@H](N)CC(C)C (stereo partly drawn) [I.10, (2-methoxy 5-((3,4,5-trimethoxyphenyl)diazenyl)phenyl) 2-((L-leucinamido)methyl)piperidine 1-carboxylate 2,2,2-trifluoroacetate salt] | – | – | – | – | 0.986 fold | 0.95 fold | 0.945 fold | 0.99 fold | 0.387 fold | 0.92 fold | 0.357 fold | 0.90 fold | 0.217 fold | 0.99 fold | 0.293 fold | 0.78 fold
9 | COc1ccc(N=Nc2cc(OC)c(OC)c(OC)c2)cc1OC [I.11, 1-(3,4-dimethoxyphenyl)-2-(3,4,5-trimethoxyphenyl)diazene] | 18163 M⁻¹ cm⁻¹ | 460 nm | 375 nm | 40 min | – | – | – | – | – | – | – | – | – | – | – | –
10 | COc1ccc(N=Nc2cc(OC)c(OC)c(OC)c2)cn1 [I.13, 2-methoxy-5-((3,4,5-trimethoxyphenyl)diazenyl)pyridine] | 14200 M⁻¹ cm⁻¹ | 440 nm | 355 nm | 270 min | – | – | – | – | – | – | – | – | – | – | – | –
11 | COc1ccc(N=Nc2cc(OC)c(OC)c(OC)c2)cc1NC(=O)[C@@H](N)CO [I.20, (2-methoxy 5-((3,4,5-trimethoxyphenyl)diazenyl)phenyl)) 1-L-serinamide 2,2,2-trifluoroacetate salt] | – | – | – | – | 1.09 fold | 0.99 fold | 1.10 fold | 1.11 fold | 1.00 fold | 1.12 fold | 0.96 fold | 1.10 fold | 0.68 fold | 1.03 fold | 0.51 fold | 1.01 fold
12 | COc1ccc(N=Nc2cc(OC)c(OC)c(OC)c2)cc1Br [I.27, 1-(3-bromo-4-methoxyphenyl)-2-(3,4,5-trimethoxyphenyl)diazene] | 19540 M⁻¹ cm⁻¹ | 445 nm | 365 nm | 129 min | – | – | – | – | – | – | – | – | – | – | – | –
13 | COc1ccc(N=Nc2cc(OC)c(OC)c(OC)c2)cc1C=O [I.28, 2-methoxy-5-((3,4,5-trimethoxyphenyl)diazenyl)benzaldehyde] | 17813 M⁻¹ cm⁻¹ | 452 nm | 360 nm | 248 min | – | – | – | – | – | – | – | – | – | – | – | –
14 | COc1ccc(N=Nc2cc(OC)c(OC)c(OC)c2)cc1C(=O)O [I.29, 2-methoxy-5-((3,4,5-trimethoxyphenyl)diazenyl)benzoic acid] | 20102 M⁻¹ cm⁻¹ | 447 nm | 365 nm | 104 min | – | – | – | – | – | – | – | – | – | – | – | –
